Data as given in patent publication US11186566B2, “Modulator of cystic fibrosis transmembrane conductance regulator, pharmaceutical compositions, methods of treatment, and process for making the modulator” (Vertex Pharmaceuticals Incorporated, priority 2016, dated 2021).
Read-outs that look alike come from different tables or passages of the source.

Experiments:
Rat IV and PO PK studies = assay type: in vivo, male Sprague-Dawley rats; conditions: male, Sprague-Dawley, plasma; for bioavailability / AUC: oral; for bioavailability: read-out: Rat po % F; for clearance: intravenous, 3.0 mg/kg, read-out: Rat iv CL
Experimental: 5C. Experimental Protocol for Rat IV and PO PK Studies
[…] […] Analyses of plasma and dose preparations were performed using LC/MS/MS.
Plasma concentration-time profiles of the tested compound in Sprague-Dawley rats at scheduled (nominal) sampling times were analyzed by noncompartmental pharmacokinetic methods using PK function within Watson LIMS software, Version 7.4.2 (Thermo Scientific Inc, Waltham, Mass.). AUC values were calculated using the linear trapezoidal rule.

human PXR = human PXR (Homo sapiens (Human), UniProt O75469); assay: PXR assay (PXR mediated CYP3A4 induction, DPX-2 cell line); assay type: cell-based; conditions: DPX-2 cells, 48 hours, 0.1 to 60 μM
human PXR, sequence (O75469 whole entry): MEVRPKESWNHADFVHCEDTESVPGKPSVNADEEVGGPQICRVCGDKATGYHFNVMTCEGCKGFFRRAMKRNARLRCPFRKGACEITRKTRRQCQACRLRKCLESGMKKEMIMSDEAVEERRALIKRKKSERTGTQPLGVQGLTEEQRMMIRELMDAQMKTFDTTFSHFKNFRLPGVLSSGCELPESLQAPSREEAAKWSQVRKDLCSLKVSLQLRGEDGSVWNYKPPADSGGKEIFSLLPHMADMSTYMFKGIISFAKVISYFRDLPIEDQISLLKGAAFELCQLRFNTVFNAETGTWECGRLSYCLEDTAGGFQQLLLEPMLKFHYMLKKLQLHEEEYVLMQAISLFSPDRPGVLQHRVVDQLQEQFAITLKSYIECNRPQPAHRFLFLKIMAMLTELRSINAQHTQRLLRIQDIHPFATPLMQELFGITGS
Experimental: 5D. Experimental Protocol for PXR Assay
The propensity for PXR mediated CYP3A4 induction is assessed using the DPX-2 cell line in vitro. This cell line, which has been licensed from Puracyp Inc. was derived from HepG2 cells and has been stably transfected with genes encoding human PXR as well as a modified luciferase reporter linked to the CYP3A4 promoter region and related distal and proximal enhancers.
The assay is run in 384 well format and each test article is administered in 11 doses ranging from 0.1 to 60 μM. On day 1, DPX-2 cells which have previously been expanded in-house and cryopreserved are thawed and seeded in tissue culture plates. The following day, media is changed and cells are cultured in media containing test article, vehicle control or the positive control compound, the clinically validated CYP3A4 inducer rifampicin. Cells are cultured in the presence of test article for 48 hours and then cell viability is assessed using fluorescence based assay (Cell Titer-Fluor, Promega) with an EnVision Plate Reader (PerkinElmer). Subsequently, CYP3A4 transactivation, which is proportional to luciferase activity, is measured by reading luminescense using the Promega One-Glo reagent system using the same plate reader.
Data processing within the Genedata software package allows reporting of max fold induction compared to vehicle control, an EC50 value for CYP3A4 inducers and an 11 point-dose response curve.

F508del-CFTR = F508del-CFTR (Homo sapiens (Human), UniProt P13569, DEL508-508); assay: Membrane potential optical (fluorescent voltage sensing dye, FLIPR III) HTS assay for F508del-CFTR modulators; assay type: cell-based
F508del-CFTR, sequence (P13569 other isoform, or with tags, fused parts or gaps del F508-F508): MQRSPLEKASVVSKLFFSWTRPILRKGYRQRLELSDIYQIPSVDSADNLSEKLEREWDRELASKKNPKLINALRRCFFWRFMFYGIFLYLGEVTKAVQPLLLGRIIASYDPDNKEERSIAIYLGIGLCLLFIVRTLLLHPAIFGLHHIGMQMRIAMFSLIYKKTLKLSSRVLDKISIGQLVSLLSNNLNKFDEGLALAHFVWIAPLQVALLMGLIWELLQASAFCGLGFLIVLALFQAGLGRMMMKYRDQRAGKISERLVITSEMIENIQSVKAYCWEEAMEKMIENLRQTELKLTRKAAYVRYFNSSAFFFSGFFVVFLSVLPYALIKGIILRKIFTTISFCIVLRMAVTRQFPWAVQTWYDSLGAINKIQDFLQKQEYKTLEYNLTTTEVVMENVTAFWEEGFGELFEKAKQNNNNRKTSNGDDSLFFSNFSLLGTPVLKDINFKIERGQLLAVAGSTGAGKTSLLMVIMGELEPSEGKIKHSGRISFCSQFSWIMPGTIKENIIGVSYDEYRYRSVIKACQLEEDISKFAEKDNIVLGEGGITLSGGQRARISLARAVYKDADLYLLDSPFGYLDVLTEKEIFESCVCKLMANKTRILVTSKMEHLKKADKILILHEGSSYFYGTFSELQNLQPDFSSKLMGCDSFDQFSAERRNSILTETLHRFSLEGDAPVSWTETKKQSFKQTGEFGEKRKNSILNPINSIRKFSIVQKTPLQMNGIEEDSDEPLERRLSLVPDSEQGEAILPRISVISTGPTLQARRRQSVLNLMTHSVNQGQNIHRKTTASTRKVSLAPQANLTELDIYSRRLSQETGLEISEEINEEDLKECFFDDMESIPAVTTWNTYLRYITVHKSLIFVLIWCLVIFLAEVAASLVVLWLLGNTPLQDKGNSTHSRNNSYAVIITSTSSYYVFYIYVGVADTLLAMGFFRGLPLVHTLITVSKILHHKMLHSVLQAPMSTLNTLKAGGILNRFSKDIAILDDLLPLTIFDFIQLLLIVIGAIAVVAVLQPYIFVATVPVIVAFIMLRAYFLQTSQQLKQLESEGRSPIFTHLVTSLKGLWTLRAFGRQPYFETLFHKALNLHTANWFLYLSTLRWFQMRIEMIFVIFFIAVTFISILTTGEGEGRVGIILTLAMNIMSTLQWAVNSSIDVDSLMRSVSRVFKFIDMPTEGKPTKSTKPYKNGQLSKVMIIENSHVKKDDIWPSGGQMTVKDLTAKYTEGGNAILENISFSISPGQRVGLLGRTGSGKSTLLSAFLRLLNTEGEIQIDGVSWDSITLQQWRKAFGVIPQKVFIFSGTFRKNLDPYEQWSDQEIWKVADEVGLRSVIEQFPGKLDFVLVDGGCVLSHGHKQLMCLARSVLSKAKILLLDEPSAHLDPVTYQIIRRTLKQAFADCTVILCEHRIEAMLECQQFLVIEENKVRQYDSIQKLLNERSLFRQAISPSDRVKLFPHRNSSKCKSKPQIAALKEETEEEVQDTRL
From the text: Membrane Potential Optical Methods for Assaying Properties of F508del-CFTR Modulators
The assay utilizes fluorescent voltage sensing dyes to measure changes in membrane potential using a fluorescent plate reader (e.g., FLIPR III, Molecular Devices, Inc.) as a readout for increase in functional F508del in NIH 3T3 cells.
5A-A1. Identification of F508Del-CFTR Modulators
To identify modulators of F508del, a fluorescence based HTS assay format was developed. This HTS assay utilizes fluorescent voltage sensing dyes to measure changes in membrane potential on the FLIPR III as a measurement for increase in gating (conductance) of F508del NIH 3T3 cells.
(in mM) NaCl 160, KCl 4.5, CaCl2 2, MgCl2 1, HEPES 10, pH 7.4 with NaOH, Glucose 10.
Chloride salts in Bath Solution #1 (above) are substituted with gluconate salts.
NIH3T3 mouse fibroblasts stably expressing F508del are used for optical measurements of membrane potential. The cells are maintained at 37° C. in 5% CO2 and 90% humidity in Dulbecco's modified Eagle's medium supplemented with 2 mM glutamine, 10% fetal bovine serum, 1×NEAA, β-ME, 1×pen/strep, and 25 mM HEPES in 175 cm^2 culture flasks. For all optical assays, the cells were seeded at 12,000 cells/well in 384-well matrigel-coated plates and cultured for 18-24 hrs at 37° C. for the potentiator assay. For the correction assays, the cells are cultured at 37° C. with and without compounds for 18-24 hours.

[1] = F508del NIH 3T3 cells, assay 5A-A1, read-out: CFTRdF508 EC50
[2] = Table 9, read-out: CFTR dF508 EC50

## C[C@@H]1CN(c2nc(-n3ccc(OCC4(C(F)(F)F)CC4)n3)ccc2C(=O)NS(=O)(=O)c2ccc(O)cc2)C(C)(C)C1 [Compound 22, N-(4-Hydroxyphenyl)sulfonyl-6-[3-[[1-(trifluoromethyl)cyclopropyl]methoxy]pyrazol-1-yl]-2-[(4S)-2,2,4-trimethylpyrrolidin-1-yl]pyridine-3-carboxamide]
Rat IV and PO PK studies; 3 mg/kg
  bioavailability: 31%
  AUC: 3600 ng·h/mL
Rat IV and PO PK studies
  clearance: 6.7 mL/min/kg
Human PXR
  PXR Max Induction (% of rifampicin): 4 % of rifampicin
F508del-CFTR; [1]
  EC50: 100 to 1000 nM
F508del-CFTR; [2]
  EC50: 120 nM

## COc1ccccc1S(=O)(=O)NC(=O)c1ccc(-n2ccc(OCC3(C(F)(F)F)CC3)n2)nc1N1C[C@@H](C)CC1(C)C [Comp. 53, N-(2-methoxyphenyl)sulfonyl-6-[3-[[l-(trifluoromethyl)cyclopropyl]methoxy]pyrazol-1-yl]-2-[(4S)-2,2,4-trimethylpyrrolidin-1-yl]pyridine-3-carboxamide]
Rat IV and PO PK studies; 3 mg/kg
  bioavailability: 98%
  AUC: 13700 ng·h/mL
Rat IV and PO PK studies
  clearance: 2.3 mL/min/kg
Human PXR
  PXR Max Induction (% of rifampicin): 39 % of rifampicin
F508del-CFTR; [1]
  EC50: < 100 nM
F508del-CFTR; [2]
  EC50: 40 nM

## C[C@@H]1CN(c2nc(-n3ccc(OCC4C(C)(C)C4(C)C)n3)ccc2C(=O)NS(=O)(=O)c2cccc(F)c2)C(C)(C)C1 [Compound 16, N-(3-Fluorophenyl)sulfonyl-6-[3-[(2,2,3,3-tetramethylcyclopropyl)methoxy]pyrazol-1-yl]-2-[(4S)-2,2,4-trimethylpyrrolidin-1-yl]pyridine-3-carboxamide]
Rat IV and PO PK studies; 3 mg/kg
  bioavailability: 12%
  AUC: 250 ng·h/mL
Rat IV and PO PK studies
  clearance: 24.8 mL/min/kg
Human PXR
  PXR Max Induction (% of rifampicin): 2 % of rifampicin
F508del-CFTR; [1]
  EC50: < 100 nM
F508del-CFTR; [2]
  EC50: 20 nM

## C[C@@H]1CN(c2nc(-n3ccc(OCC4(C(F)(F)F)CC4)n3)ccc2C(=O)NS(=O)(=O)c2ccc(C#N)cc2)C(C)(C)C1 [Comp. 27, N-(4-Cyanophenyl)sulfonyl-6-[3-[[1-(trifluoromethyl)cyclopropyl]methoxy]pyrazol-1-yl]-2-[(4S)-2,2,4-trimethylpyrrolidin-1-yl]pyridine-3-carboxamide]
Rat IV and PO PK studies; 3 mg/kg
  bioavailability: 100%
  AUC: 20300 ng·h/mL
Rat IV and PO PK studies
  clearance: 3.6 mL/min/kg
Human PXR
  PXR Max Induction (% of rifampicin): 8 % of rifampicin
F508del-CFTR; [1]
  EC50: 100 to 1000 nM
F508del-CFTR; [2]
  EC50: 270 nM

## Cc1ccccc1S(=O)(=O)NC(=O)c1ccc(-n2ccc(OCC3(C(F)(F)F)CC3)n2)nc1N1C[C@@H](C)CC1(C)C [Compound 23, N-(o-Tolylsulfonyl)-6-[3-[[1-(trifluoromethyl)cyclopropyl]methoxy]pyrazol-1-yl]-2-[(4S)-2,2,4-trimethylpyrrolidin-1-yl]pyridine-3-carboxamide]
Rat IV and PO PK studies; 3 mg/kg
  bioavailability: 69%
  AUC: 12500 ng·h/mL
Rat IV and PO PK studies
  clearance: 2.7 mL/min/kg
Human PXR
  PXR Max Induction (% of rifampicin): 22 % of rifampicin
F508del-CFTR; [1]
  EC50: < 100 nM
F508del-CFTR; [2]
  EC50: 30 nM

## C[C@@H]1CN(c2nc(-n3ccc(OCCC4(C(F)(F)F)CC4)n3)ccc2C(=O)NS(=O)(=O)c2ccccc2Cl)C(C)(C)C1 [Comp. 43, N-(2-chlorophenyl) sulfonyl-6-[3-[2-[1-(trifluoromethyl)cyclopropyl]ethoxy]pyrazol-1-yl]-2-[(4S)-2,2,4-trimethylpyrrolidin-1-yl]pyridine-3-carboxamide]
Human PXR
  PXR Max Induction (% of rifampicin): 12 % of rifampicin
F508del-CFTR; [1]
  EC50: < 100 nM
F508del-CFTR; [2]
  EC50: 50 nM

## C[C@@H]1CN(c2nc(-n3ccc(OCC(C)(C)C)n3)ccc2C(=O)NS(=O)(=O)c2cccnc2N)C(C)(C)C1 [Comp. A, reference compound]
Rat IV and PO PK studies; 3 mg/kg
  bioavailability: 28%
Rat IV and PO PK studies
  clearance: 17.8 mL/min/kg
Rat IV and PO PK studies; 10 mg/kg for Compound A, read-out: Rat po AUC
  AUC: 1200 ng·h/mL
Human PXR
  PXR Max Induction (% of rifampicin): 2 % of rifampicin

## COc1ccc(S(=O)(=O)NC(=O)c2ccc(-n3ccc(OCC4(C(F)(F)F)CC4)n3)nc2N2C[C@@H](C)CC2(C)C)c(OC)c1 [Compound 13, N-(2,4-Dimethoxyphenyl)sulfonyl-6-[3-[[1-(trifluoromethyl)cyclopropyl]methoxy]pyrazol-1-yl]-2-[(4S)-2,2,4-trimethylpyrrolidin-1-yl]pyridine-3-carboxamide]
Human PXR
  PXR Max Induction (% of rifampicin): 2 % of rifampicin
F508del-CFTR; [1]
  EC50: 100 to 1000 nM
F508del-CFTR; [2]
  EC50: 110 nM

## Cc1cccc(S(=O)(=O)NC(=O)c2ccc(-n3ccc(OCC4(C(F)(F)F)CC4)n3)nc2N2C[C@@H](C)CC2(C)C)c1 [Comp. 28, N-(m-Tolylsulfonyl)-6-[3-[[1-(trifluoromethyl)cyclopropyl]methoxy]pyrazol-1-yl]-2-[(4S)-2,2,4-trimethylpyrrolidin-1-yl]pyridine-3-carboxamide]
Human PXR
  PXR Max Induction (% of rifampicin): 17 % of rifampicin
F508del-CFTR; [1]
  EC50: < 100 nM
F508del-CFTR; [2]
  EC50: 30 nM

## C[C@@H]1CN(c2nc(-n3ccc(OCC4C[C@@H]5CC[C@@H]4C5)n3)ccc2C(=O)NS(=O)(=O)c2ccccc2)C(C)(C)C1 (stereo partly drawn) [Comp. 40, N-(Benzenesulfonyl)-6-[3-[[(1R,4R)-norbornan-2-yl]methoxy]pyrazol-1-yl]-2-[(4S)-2,2,4-trimethylpyrrolidin-1-yl]pyridine-3-carboxamide]
Human PXR
  PXR Max Induction (% of rifampicin): 2 % of rifampicin
F508del-CFTR; [1]
  EC50: < 100 nM
F508del-CFTR; [2]
  EC50: 80 nM

## C[C@@H]1CN(c2nc(-n3ccc(OCC4C(C)(C)C4(C)C)n3)ccc2C(=O)NS(=O)(=O)c2ccc(O)cc2)C(C)(C)C1 [Comp. 33, N-(4-Hydroxyphenyl)sulfonyl-6-[3-[(2,2,3,3-tetramethylcyclopropyl)methoxy]pyrazol-1-yl]-2-[(4S)-2,2,4-trimethylpyrrolidin-1-yl]pyridine-3-carboxamide]
Human PXR
  PXR Max Induction (% of rifampicin): 0 % of rifampicin
F508del-CFTR; [1]
  EC50: < 100 nM
F508del-CFTR; [2]
  EC50: 80 nM

## C[C@@H]1CN(c2nc(-n3ccc(OCC(C)(C)C)n3)ccc2C(=O)NS(=O)(=O)c2ccccc2)C(C)(C)C1 [Comp. B, reference compound]
Rat IV and PO PK studies
  clearance: 29.2 mL/min/kg
Human PXR
  PXR Max Induction (% of rifampicin): 9 % of rifampicin

## Cc1ccccc1S(=O)(=O)NC(=O)c1ccc(-n2ccc(OCC3(C(F)(F)F)CCC3)n2)nc1N1C[C@@H](C)CC1(C)C [Comp. 58, N-(o-Tolylsulfonyl)-6-[3-[[1-(trifluoromethyl)cyclobutyl]methoxy]pyrazol-1-yl]-2-[(4S)-2,2,4-trimethylpyrrolidin-1-yl]pyridine-3-carboxamide]
Human PXR
  PXR Max Induction (% of rifampicin): 4 % of rifampicin
F508del-CFTR; [1]
  EC50: < 100 nM
F508del-CFTR; [2]
  EC50: 50 nM

## C[C@@H]1CN(c2nc(-n3ccc(OCC4CC4)n3)ccc2C(=O)NS(=O)(=O)c2cccnc2N)C(C)(C)C1 [Comp. D, reference compound]
Human PXR
  PXR Max Induction (% of rifampicin): 20 % of rifampicin
F508del-CFTR; [2]
  EC50: 400 nM

## C[C@@H]1CN(c2nc(-n3ccc(OCC4(C(F)F)CC4)n3)ccc2C(=O)NS(=O)(=O)c2ccccc2)C(C)(C)C1 [Comp. 55, N-(Benzenesulfonyl)-6-[3-[[1-(difluoromethyl)cyclopropyl]methoxy]pyrazol-1-yl]-2-[(4S)-2,2,4-trimethylpyrrolidin-1-yl]pyridine-3-carboxamide]
Human PXR
  PXR Max Induction (% of rifampicin): 22 % of rifampicin
F508del-CFTR; [1]
  EC50: < 100 nM
F508del-CFTR; [2]
  EC50: 50 nM

## COc1ccc(S(=O)(=O)NC(=O)c2ccc(-n3ccc(OCC4(C(F)(F)F)CC4)n3)nc2N2C[C@@H](C)CC2(C)C)c(C)c1 [Comp. 57, N-(4-Methoxy-2-methyl-phenyl)sulfonyl-6-[3-[[1-(trifluoromethyl)cyclopropyl]methoxy]pyrazol-1-yl]-2-[(4S)-2,2,4-trimethylpyrrolidin-1-yl]pyridine-3-carboxamide]
Human PXR
  PXR Max Induction (% of rifampicin): 2 % of rifampicin
F508del-CFTR; [1]
  EC50: < 100 nM
F508del-CFTR; [2]
  EC50: 80 nM
